Residues, ends and D or L forms follow the SMILES beside them. *: point of attachment. Pentanoyl = CCCCC(=O)*
Assay: Carboxyfluorescein release assay, mammalian liposome model
Format: biochemical
Conditions: 65:5:30 POPC:POPS:Chol. liposomes, 25 µM lipid, 10 mM PBS pH 7.4, 10^–5–10^2 µM peptide, 60 min, fluorescence, Hill fit, n = 3; read-out: EC50 Mammalial (concentration that triggers 50% CF release)
How it was run: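 CF-loaded extruded 0.1 µm unilamellar liposomes: bacterial POPC:POPG 75:25, mammalian POPC:POPS:Chol 65:5:30. Liposomes at 25 µM lipid in PBS pH 7.4 incubated with peptide (10^–5–10^2 µM; n = 3), fluorescence read every 2.5 min for 1 h. Release normalized to 1% Triton X-100; EC50 from Hill-1 fit.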

SMILES: CCCCC(=O)N[C@@H](CC(C)C)C(=O)NCC(=O)N[C@H](C(=O)N[C@@H](CCCCN)C(=O)N[C@H](C(=O)N[C@@H](CC(C)C)C(=O)N[C@@H](Cc1c[nH]c2ccccc12)C(=O)N[C@@H](CO)C(=O)N[C@@H](C)C(=O)N[C@@H](Cc1ccc(O)cc1)C(=O)N[C@@H](CCCCN)C(=O)N[C@@H](Cc1c[nH]cn1)C(=O)N[C@@H](CCCNC(=N)N)C(=O)N[C@@H](CCCCN)C(=O)N[C@H](C(=O)N[C@H](C(N)=O)[C@@H](C)CC)[C@@H](C)O)[C@@H](C)CC)[C@@H](C)CC [L-6-C5] (Pentanoyl-LGIKILWSAYKHRKTI-NH2)
- EC50: 10.5 µM

Reference: article PMC10011573, “Development of novel broad-spectrum antimicrobial lipopeptides derived from plantaricin NC8 β” (Scientific Reports, 2023)
